Usually inhibition stands for the percentage by which the read-out fell short of the control. As usually defined, the IC50 is the point on the concentration scale where inhibition reaches its midpoint. As usually defined, the Ki is a measure of affinity in units of concentration, obtained from inhibition or displacement.

The values that follow come from ChEMBL document CHEMBL4765276, “Synthesis of multimeric pyrrolidine iminosugar inhibitors of human β-glucocerebrosidase and α-galactosidase A: First example of a multivalent enzyme activity enhancer for Fabry disease” (Eur J Med Chem, 2020).

For experiment [1], the target named is T1, Lysosomal acid glucosylceramidase (Homo sapiens) (UniProt P04062).
T1 sequence (whole entry): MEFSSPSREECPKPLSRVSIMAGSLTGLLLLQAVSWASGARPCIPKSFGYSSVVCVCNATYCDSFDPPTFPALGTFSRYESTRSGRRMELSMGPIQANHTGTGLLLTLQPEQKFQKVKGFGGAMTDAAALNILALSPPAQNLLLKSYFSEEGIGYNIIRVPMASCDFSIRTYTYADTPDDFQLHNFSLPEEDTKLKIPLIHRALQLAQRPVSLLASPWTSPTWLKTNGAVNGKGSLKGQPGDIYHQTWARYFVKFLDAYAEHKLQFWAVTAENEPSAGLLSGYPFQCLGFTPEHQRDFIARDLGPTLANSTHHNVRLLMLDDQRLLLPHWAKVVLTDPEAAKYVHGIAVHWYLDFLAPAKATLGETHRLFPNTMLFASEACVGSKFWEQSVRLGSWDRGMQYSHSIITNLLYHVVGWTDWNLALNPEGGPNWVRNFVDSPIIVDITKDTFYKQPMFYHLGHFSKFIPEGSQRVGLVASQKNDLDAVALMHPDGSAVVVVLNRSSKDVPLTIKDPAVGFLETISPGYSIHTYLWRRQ
Nature of the experiment: Inhibition of human recombinant lysosomal GCase at 1 mM using 4-methylumbelliferyl-beta-D-glucopyranoside as substrate preincubated for 45 mins followed by substrate addition and measured after 30 mins by fluorescence spectrophotometric assay relative to control. The conditions noted are these: time 75.0 min.

For the next experiment, the target named is T2, Alpha-galactosidase A (Homo sapiens, UniProt P06280).
T2 sequence (P06280 whole entry): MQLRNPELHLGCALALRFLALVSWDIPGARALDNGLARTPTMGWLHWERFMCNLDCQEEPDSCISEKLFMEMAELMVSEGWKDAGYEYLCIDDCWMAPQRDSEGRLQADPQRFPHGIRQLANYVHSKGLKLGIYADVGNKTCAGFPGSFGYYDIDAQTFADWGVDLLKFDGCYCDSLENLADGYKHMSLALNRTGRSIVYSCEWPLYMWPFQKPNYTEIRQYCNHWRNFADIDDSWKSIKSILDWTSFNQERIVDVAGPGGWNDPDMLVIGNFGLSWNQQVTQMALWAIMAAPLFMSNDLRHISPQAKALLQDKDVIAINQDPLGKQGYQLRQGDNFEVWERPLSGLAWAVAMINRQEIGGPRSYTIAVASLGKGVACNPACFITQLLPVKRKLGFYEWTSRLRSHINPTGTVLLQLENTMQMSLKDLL
Nature of the experiment: Inhibition of human recombinant lysosomal alpha-GalA using 4-methylumbelliferyl-[…] as substrate preincubated for 45 mins followed by substrate addition and measured after 30 mins by fluorescence spectrophotometric assay.

For experiment [2], the target named is T3, Lysosomal acid glucosylceramidase (Homo sapiens, UniProt P04062).
T3 sequence (P04062 whole entry): T1 sequence (whole entry)
The experiment can be described thus: Inhibition of human recombinant lysosomal GCase using 4-methylumbelliferyl-beta-D-glucopyranoside as substrate preincubated for 45 mins followed by substrate addition and measured after 30 mins by fluorescence spectrophotometric assay.

In experiment [3] the target is T3, Lysosomal acid glucosylceramidase. The experiment can be described thus: Competitive inhibition of human recombinant lysosomal GCase using 4-methylumbelliferyl-beta-D-glucopyranoside as substrate preincubated for 45 mins followed by substrate addition and measured after 30 mins by fluorescence spectrophotometry based Lineweaver-Burk plot analysis.
For experiment [4], the target named is T4, Alpha-galactosidase A (Homo sapiens) (UniProt P06280).
T4 sequence (whole entry): T2 sequence (P06280 whole entry)
The experiment can be described thus: Inhibition of human recombinant lysosomal alpha-GalA at 1 mM using 4-methylumbelliferyl-[…] as substrate preincubated for 45 mins followed by substrate addition and measured after 30 mins by fluorescence spectrophotometric assay relative to control. The settings on record: time 75.0 min.

On to `NC(COCc1cn(CCCc2cn(C[C@H]3NC[C@@H](O)[C@H]3O)nn2)nn1)(COCc1cn(CCCc2cn(C[C@H]3NC[C@@H](O)[C@H]3O)nn2)nn1)COCc1cn(CCCc2cn(C[C@H]3NC[C@@H](O)[C@H]3O)nn2)nn1`, for which the inhibition in experiment [1] is less than 50%. In addition, the IC50 on Alpha-galactosidase A worked out at 309 µM.

With `O=C(NC(COCc1cn(CCOCCOc2ccc(-c3cn(C[C@@H]4NC[C@@H](O)[C@H]4O)nn3)cc2)nn1)(COCc1cn(CCOCCOc2ccc(-c3cn(C[C@@H]4NC[C@@H](O)[C@H]4O)nn3)cc2)nn1)COCc1cn(CCOCCOc2ccc(-c3cn(C[C@@H]4NC[C@@H](O)[C@H]4O)nn3)cc2)nn1)c1cc(C(=O)NC(COCc2cn(CCOCCOc3ccc(-c4cn(C[C@@H]5NC[C@@H](O)[C@H]5O)nn4)cc3)nn2)(COCc2cn(CCOCCOc3ccc(-c4cn(C[C@@H]5NC[C@@H](O)[C@H]5O)nn4)cc3)nn2)COCc2cn(CCOCCOc3ccc(-c4cn(C[C@@H]5NC[C@@H](O)[C@H]5O)nn4)cc3)nn2)cc(C(=O)NC(COCc2cn(CCOCCOc3ccc(-c4cn(C[C@@H]5NC[C@@H](O)[C@H]5O)nn4)cc3)nn2)(COCc2cn(CCOCCOc3ccc(-c4cn(C[C@@H]5NC[C@@H](O)[C@H]5O)nn4)cc3)nn2)COCc2cn(CCOCCOc3ccc(-c4cn(C[C@@H]5NC[C@@H](O)[C@H]5O)nn4)cc3)nn2)c1`, the IC50 in experiment [2] was determined as 1.1 µM. Also, the Ki in experiment [3] is 1.1 µM. In addition, the inhibition in experiment [4] is less than 50%.

As to `O[C@@H]1[C@H](O)CN[C@@H]1Cn1cc(CCCn2cc(COCC(COCc3cn(CCCc4cn(C[C@H]5NC[C@@H](O)[C@H]5O)nn4)nn3)(COCc3cn(CCCc4cn(C[C@H]5NC[C@@H](O)[C@H]5O)nn4)nn3)COCc3cn(CCCc4cn(C[C@H]5NC[C@@H](O)[C@H]5O)nn4)nn3)nn2)nn1`, the inhibition in experiment [1] is less than 50%. Further, the IC50 on Alpha-galactosidase A was found to be 142 µM.

In the case of `COc1ccc(-c2cn(C[C@@H]3NC[C@@H](O)[C@H]3O)nn2)cc1`, the IC50 in experiment [2] amounted to 39 µM. Moreover, the Ki in experiment [3] is 55 µM. The inhibition in experiment [4] was less than 50%.

As to `O=C(CCCCC(=O)NC(COCc1cn(C[C@@H]2NC[C@@H](O)[C@H]2O)nn1)(COCc1cn(C[C@@H]2NC[C@@H](O)[C@H]2O)nn1)COCc1cn(C[C@@H]2NC[C@@H](O)[C@H]2O)nn1)NC(COCc1cn(C[C@@H]2NC[C@@H](O)[C@H]2O)nn1)(COCc1cn(C[C@@H]2NC[C@@H](O)[C@H]2O)nn1)COCc1cn(C[C@@H]2NC[C@@H](O)[C@H]2O)nn1`, the inhibition in experiment [1] and in experiment [4] was less than 50% throughout.

With `CCCc1cn(C[C@H]2NC[C@@H](O)[C@H]2O)nn1`, the inhibition in experiment [1] and in experiment [4] was less than 50% in each case.

Take `NC(COCc1cn(CCOCCOc2ccc(-c3cn(C[C@@H]4NC[C@@H](O)[C@H]4O)nn3)cc2)nn1)(COCc1cn(CCOCCOc2ccc(-c3cn(C[C@@H]4NC[C@@H](O)[C@H]4O)nn3)cc2)nn1)COCc1cn(CCOCCOc2ccc(-c3cn(C[C@@H]4NC[C@@H](O)[C@H]4O)nn3)cc2)nn1`: the half-inhibitory concentration (IC50) in experiment [2] stood at 38 µM. Moreover, in experiment [3], the Ki was determined as 55 µM. Moreover, the inhibition in experiment [4] was less than 50%.

Turning to `NC(COCc1cn(C[C@@H]2NC[C@@H](O)[C@H]2O)nn1)(COCc1cn(C[C@@H]2NC[C@@H](O)[C@H]2O)nn1)COCc1cn(C[C@@H]2NC[C@@H](O)[C@H]2O)nn1`, the inhibition in experiment [1] and in experiment [4] was less than 50% each time.

As for `NC(COCc1cn(CCCc2cn(C[C@@H]3NC[C@@H](O)[C@H]3O)nn2)nn1)(COCc1cn(CCCc2cn(C[C@@H]3NC[C@@H](O)[C@H]3O)nn2)nn1)COCc1cn(CCCc2cn(C[C@@H]3NC[C@@H](O)[C@H]3O)nn2)nn1`, in experiment [2], the IC50 worked out at 725 µM. In addition, the inhibition in experiment [4] is less than 50%.

With `O[C@@H]1[C@H](O)CN[C@H]1Cn1cc(CCCn2cc(COCC(COCc3cn(CCCc4cn(C[C@@H]5NC[C@@H](O)[C@H]5O)nn4)nn3)(COCc3cn(CCCc4cn(C[C@@H]5NC[C@@H](O)[C@H]5O)nn4)nn3)COCc3cn(CCCc4cn(C[C@@H]5NC[C@@H](O)[C@H]5O)nn4)nn3)nn2)nn1`, the IC50 was 168 µM in experiment [2] and 897 µM at Alpha-galactosidase A.

`NC(COCc1cn(C[C@H]2NC[C@@H](O)[C@H]2O)nn1)(COCc1cn(C[C@H]2NC[C@@H](O)[C@H]2O)nn1)COCc1cn(C[C@H]2NC[C@@H](O)[C@H]2O)nn1`: the inhibition in experiment [1] and in experiment [4] was less than 50% throughout.

For `COCc1cn(C[C@H]2NC[C@@H](O)[C@H]2O)nn1`, the inhibition in experiment [1] and in experiment [4] was less than 50% in each case.

`COCc1cn(C[C@@H]2NC[C@@H](O)[C@H]2O)nn1`: the inhibition in experiment [1] and in experiment [4] was less than 50% each time.

For `O=C(NC(COCc1cn(C[C@@H]2NC[C@@H](O)[C@H]2O)nn1)(COCc1cn(C[C@@H]2NC[C@@H](O)[C@H]2O)nn1)COCc1cn(C[C@@H]2NC[C@@H](O)[C@H]2O)nn1)c1cc(C(=O)NC(COCc2cn(C[C@@H]3NC[C@@H](O)[C@H]3O)nn2)(COCc2cn(C[C@@H]3NC[C@@H](O)[C@H]3O)nn2)COCc2cn(C[C@@H]3NC[C@@H](O)[C@H]3O)nn2)cc(C(=O)NC(COCc2cn(C[C@@H]3NC[C@@H](O)[C@H]3O)nn2)(COCc2cn(C[C@@H]3NC[C@@H](O)[C@H]3O)nn2)COCc2cn(C[C@@H]3NC[C@@H](O)[C@H]3O)nn2)c1`, the inhibition in experiment [1] and in experiment [4] was less than 50% each time.

As to `O=C(CCCCC(=O)NC(COCc1cn(CCCc2cn(C[C@@H]3NC[C@@H](O)[C@H]3O)nn2)nn1)(COCc1cn(CCCc2cn(C[C@@H]3NC[C@@H](O)[C@H]3O)nn2)nn1)COCc1cn(CCCc2cn(C[C@@H]3NC[C@@H](O)[C@H]3O)nn2)nn1)NC(COCc1cn(CCCc2cn(C[C@@H]3NC[C@@H](O)[C@H]3O)nn2)nn1)(COCc1cn(CCCc2cn(C[C@@H]3NC[C@@H](O)[C@H]3O)nn2)nn1)COCc1cn(CCCc2cn(C[C@@H]3NC[C@@H](O)[C@H]3O)nn2)nn1`, the values for the IC50 (in experiment [2]; at Alpha-galactosidase A) were 333 µM and 483 µM, respectively.

Regarding `O=C(NC(COCc1cn(C[C@H]2NC[C@@H](O)[C@H]2O)nn1)(COCc1cn(C[C@H]2NC[C@@H](O)[C@H]2O)nn1)COCc1cn(C[C@H]2NC[C@@H](O)[C@H]2O)nn1)c1cc(C(=O)NC(COCc2cn(C[C@H]3NC[C@@H](O)[C@H]3O)nn2)(COCc2cn(C[C@H]3NC[C@@H](O)[C@H]3O)nn2)COCc2cn(C[C@H]3NC[C@@H](O)[C@H]3O)nn2)cc(C(=O)NC(COCc2cn(C[C@H]3NC[C@@H](O)[C@H]3O)nn2)(COCc2cn(C[C@H]3NC[C@@H](O)[C@H]3O)nn2)COCc2cn(C[C@H]3NC[C@@H](O)[C@H]3O)nn2)c1`, in experiment [1], the inhibition is less than 50%. For the same compound, the IC50 at Alpha-galactosidase A came to 286 µM.

Turning to `CCCc1cn(C[C@@H]2NC[C@@H](O)[C@H]2O)nn1`, the IC50 in experiment [2] turned out to be 247 µM. Also, in experiment [4], the inhibition is less than 50%.

With `O=C(NC(COCc1cn(CCCc2cn(C[C@@H]3NC[C@@H](O)[C@H]3O)nn2)nn1)(COCc1cn(CCCc2cn(C[C@@H]3NC[C@@H](O)[C@H]3O)nn2)nn1)COCc1cn(CCCc2cn(C[C@@H]3NC[C@@H](O)[C@H]3O)nn2)nn1)c1cc(C(=O)NC(COCc2cn(CCCc3cn(C[C@@H]4NC[C@@H](O)[C@H]4O)nn3)nn2)(COCc2cn(CCCc3cn(C[C@@H]4NC[C@@H](O)[C@H]4O)nn3)nn2)COCc2cn(CCCc3cn(C[C@@H]4NC[C@@H](O)[C@H]4O)nn3)nn2)cc(C(=O)NC(COCc2cn(CCCc3cn(C[C@@H]4NC[C@@H](O)[C@H]4O)nn3)nn2)(COCc2cn(CCCc3cn(C[C@@H]4NC[C@@H](O)[C@H]4O)nn3)nn2)COCc2cn(CCCc3cn(C[C@@H]4NC[C@@H](O)[C@H]4O)nn3)nn2)c1`, the inhibition in experiment [1] and in experiment [4] was less than 50% in each case.

Take `O=C(CCCCC(=O)NC(COCc1cn(C[C@H]2NC[C@@H](O)[C@H]2O)nn1)(COCc1cn(C[C@H]2NC[C@@H](O)[C@H]2O)nn1)COCc1cn(C[C@H]2NC[C@@H](O)[C@H]2O)nn1)NC(COCc1cn(C[C@H]2NC[C@@H](O)[C@H]2O)nn1)(COCc1cn(C[C@H]2NC[C@@H](O)[C@H]2O)nn1)COCc1cn(C[C@H]2NC[C@@H](O)[C@H]2O)nn1`: the inhibition in experiment [1] was less than 50%. The IC50 on Alpha-galactosidase A came out at 416 µM.
